# Experimental data: US6576811B1, “Transgenic rat with human normal type c-Ha-ras gene” (National Cancer Center Research Institute, priority 1998, dated 2003)
# “And” between values parts separate entries of the source, which are not always exact repeats. Identical values can stand only once. Marks after values point to notes of the source that are not given here.
# How the values were obtained:
# wild rats = test: ENU-induced transplacental carcinogenesis in wild rats; assay type: in vivo, rat
# Procedure: (§1) The effects of transplacental administration of carcinogenic substances were examined in offsprings of females and males of Hras128 rats and wild rats.
# (§2) Transplacental administration of ethylnitrosourea (ENU) was performed and incidence of tumors in many organs of the bearing rats are shown in Table 14.
# Hras128 rats [1] = test: ENU-induced transplacental carcinogenesis in Hras128 (Tg 128) rats; assay type: in vivo, rat; details: for No. of tumor bearing rat/total No. of rat / Tumor incidence, CNS / Tumor incidence, kidney / Tumor incidence, mammary gland / Tumor incidence, papilloma / Tumor incidence, spleen: transplacental ENU
# Procedure: as §1, §2
# [2] = test system: human c-Ha-ras proto-oncogene (transgene); test: Mutation analysis (RFLP, PCR-SSCP) of the transgene in carcinogen-induced tumors
# Text: Single-stranded DNA confirmation polymorphism (SSCP) analysis is able to be performed according to the followings; T. Sekiya. Protein, Nucleic Acid, Enzyme, vol.
# Possible mutations in exons 1 to 4 of the human Ha-ras proto-oncogene and exons 1 and 2 of the endogenous gene were examined by PCR-SSCP analysis.
# RFLP analysis is able to perform according to the followings; Nagase, et al., Protein, Nucleic Acid, Enzyme, vol.
# Hras128 rats [3] = test: PhIP-induced mammary carcinomas in Hras128 rats; assay type: in vivo, rat
# Text: (§4) Well established mammary carcinogens, such as 7,14-dimethylbenz[a]anthracene (DMBA) and 2-amino-1-methyl-6-phenylimidazo[4,5-]pyridlne (PhIP) were given to the Hras128 rats in the same manner as in previous reports.
# [4] = test system: endogenous Ha-ras gene (rat); test: Mutation analysis (PCR-SSCP) of the endogenous Ha-ras gene in carcinogen-induced tumors
# Text: Single-stranded DNA confirmation polymorphism (SSCP) analysis is able to be performed according to the followings; T. Sekiya. Protein, Nucleic Acid, Enzyme, vol. 41, No. 5, 539, 1996.
# Possible mutations in exons 1 to 4 of the human Ha-ras proto-oncogene and exons 1 and 2 of the endogenous gene were examined by PCR-SSCP analysis. Using human or rat specific primers, only two bands appeared on the gals. With common primers (cHras21F and cHras21R) for Ha-ras exon 2 of both man and rats, four bands were detected. Human or rat specific bands were identified by signals from normal DNA of the transgenic and non-transgenic rats. DNA from T24 having a mutation in human Ha-ras of codon 12, GGC to GTC and that from pSK2 having a mutation in the codon 61, CAG to CTG, gave clearly mobility shifted bands in the assays (FIG. 4). However, a GGC to GAC mutation of the transgene enriched by PCR after RFLP analysis as described below, which was frequently observed in tumors induced by MNU in human Ha-ras proto-oncogene transgenic mice, could not be detected by SSCP -PCR analysis. In 44 tumors from Hras128 transgenic rats treated with MNU, mutations were not detected in exons 1 to 4 of the introduced human and endogenous c-Ha-ras genes under any of four SSCP conditions (at 4 or 20° C., with or without 5% glycerol) (Table 1). In contrast, a relatively high frequency (6 of 21 tumors of non-transgenic rats (28.6%) of GGA to GAA mutations in codon 12 of the endogenous Ha-ras gene was detected in mammary carcinomas of non-transgenic using PCR-SSCP analysis followed by direct sequencing (Table 1).
# [5] = test system: wild type rats (non Tg rats); test: PhIP-induced mammary carcinomas in wild type rats; assay type: in vivo, rat; details: 4 rats
# Text: as §4
# wild type rats = test: BBN-induced urinary bladder tumors in wild type rats; assay type: in vivo, rat; details: Wild female
# Procedure: (§3) In the same manner as in Example 2, 0.05% N-butyl-N-(4-hydroxybutyl)nitrosoamine (BBN) was administered mixed with drinking water to Hras128 rats and the wild type rats for 10 weeks, to induce bladder tumors. The incidences of bladder tumors (papillomas and carcinomas combined) are shown in Table 11, the mutation of the human c-Ha-ras proto-oncogene codons 12 and 61 and endogeneous rat H-ras shown in Table 12.
# Hras128 rats [6] = test: BBN-induced urinary bladder tumors in Hras128 rats; assay type: in vivo, rat
# Procedure: as §3
# [7] = PhIP-induced mammary carcinomas, row printed 'Wild' (Hras128 per text), 20 tumors examined
# [8] = PhIP-induced mammary carcinomas, row printed 'Wild' (Hras128 per text), 20 tumors examined, RFLP
# [9] = Hras128, mammary carcinomas, 6 rats
# [10] = BBN-induced bladder tumors, Hras128, 27 tumors examined
# [11] = bladder papillomas and carcinomas combined, 15 rats
# [12] = Hras128 female, bladder papillomas and carcinomas combined, 20 rats
# [13] = BBN-induced bladder tumors, Wild, 17 tumors examined
compound,measurement,setting,value
"CCN(N=O)C(N)=O [ENU, ethylnitrosourea]",No. of tumor bearing rat/total No. of rat,wild rats; Wild 128 Female offspring,0/7
same,"Tumor incidence, CNS",wild rats; Wild 128 Female offspring,0
same,"Tumor incidence, kidney",wild rats; Wild 128 Female offspring,0
same,"Tumor incidence, mammary gland",wild rats; Wild 128 Female offspring,0
same,"Tumor incidence, papilloma",wild rats; Wild 128 Female offspring,0
same,"Tumor incidence, spleen",wild rats; Wild 128 Female offspring,0
same,No. of tumor bearing rat/total No. of rat,wild rats; Wild 128 Male offspring,2/6
same,"Tumor incidence, CNS",wild rats; Wild 128 Male offspring,2/6
same,"Tumor incidence, kidney",wild rats; Wild 128 Male offspring,0
same,"Tumor incidence, mammary gland",wild rats; Wild 128 Male offspring,0
same,"Tumor incidence, papilloma",wild rats; Wild 128 Male offspring,0
same,"Tumor incidence, spleen",wild rats; Wild 128 Male offspring,0
same,No. of tumor bearing rat/total No. of rat,Hras128 rats [1]; Tg 128 Female offspring,6/9
same,"Tumor incidence, CNS",Hras128 rats [1]; Tg 128 Female offspring,3/9
same,"Tumor incidence, kidney",Hras128 rats [1]; Tg 128 Female offspring,2/9
same,"Tumor incidence, mammary gland",Hras128 rats [1]; Tg 128 Female offspring,5/9
same,"Tumor incidence, papilloma",Hras128 rats [1]; Tg 128 Female offspring,0
same,"Tumor incidence, spleen",Hras128 rats [1]; Tg 128 Female offspring,2/9
same,No. of tumor bearing rat/total No. of rat,Hras128 rats [1]; Tg 128 Male offspring,8/15
same,"Tumor incidence, CNS",Hras128 rats [1]; Tg 128 Male offspring,6/15
same,"Tumor incidence, kidney",Hras128 rats [1]; Tg 128 Male offspring,6/15
same,"Tumor incidence, mammary gland",Hras128 rats [1]; Tg 128 Male offspring,4/15
same,"Tumor incidence, papilloma",Hras128 rats [1]; Tg 128 Male offspring,3/15
same,"Tumor incidence, spleen",Hras128 rats [1]; Tg 128 Male offspring,0/15
same,"Occurrence of tumors in the central nervous system, kidney, skin, etc. after trans-placental administration","Hras128 rats [1]; transgenic rat, within a short period",significantly increases
Cn1c(N)nc2ncc(-c3ccccc3)cc21 [PhIP],"Transgene codon 12 mutations, %",[2]; [7],30%
same,"Transgene codon 61 mutations, %",[2]; [7],23.1%
same,"Transgene mutations total, number of tumors",[2]; [7],8
same,"Transgene codon 12 mutations, number of tumors",[2]; [8],6/20 and 6
same,"Transgene codon 61 mutations, number of tumors",[2]; [8],3/20 and 3
same,"Transgene mutations total, figure in parentheses","[2]; PhIP-induced mammary carcinomas, row printed 'Wild' (Hras128 per text), percent sign not given",61.5
same,Tumor size,"Hras128 rats [3]; Hras128, mammary carcinomas",9.23 ± 6.21 mm
same,No. of tumor-bearing rats,Hras128 rats [3]; [9],6
same,No. of tumor-bearing rats (%),Hras128 rats [3]; [9],100%
same,No. of tumors/rat,Hras128 rats [3]; [9],9.67 ± 4.76^b
same,Sensitivity of the Hras128 rat to PhIP,Hras128 rats [3]; mammary carcinogenesis,highly sensitive
same,"Endogenous (rat) exon 1 mutations, number of tumors",[4]; [7],0
same,"Endogenous (rat) exon 2 mutations, number of tumors",[4]; [7],0
same,No. of tumor-bearing rats,[5],0(0)
same,No. of tumor-bearing rats (%),[5],0(0) %
same,No. of tumors/rat,[5],0
"CCCCN(CCCCO)N=O [BBN, N-butyl-N-(4-hydroxybutyl)nitrosoamine]","Transgene codon 12 mutations, %",[2]; [10],7.4%
same,"Transgene codon 61 mutations, number of tumors",[2]; [10],0
same,"Transgene mutations total, %",[2]; [10],7.4%
same,"Transgene mutations total, number of tumors",[2]; [10],2
same,"Transgene codon 12 mutations, number of tumors","[2]; BBN-induced bladder tumors, Hras128, 27 tumors examined, GGC to GAC",2/27 and 2
same,Incidence of carcinomas (fraction),wild type rats; bladder,4/13
same,No. of tumor-bearing rats,"wild type rats; bladder papillomas and carcinomas combined, 0.05% BBN in drinking water 10 weeks, 15 rats",15
same,No. of tumor-bearing rats (%),wild type rats; [11],100%
same,No. of tumors/rat,wild type rats; [11],7.1 ± 5.2
same,Incidence of carcinomas (figure in parentheses),"wild type rats; bladder, percent sign not given",30.8
same,Incidence of carcinomas (fraction),"Hras128 rats [6]; Hras128 female, bladder",11/14
same,No. of tumor-bearing rats,"Hras128 rats [6]; Hras128 female, bladder papillomas and carcinomas combined, 0.05% BBN in drinking water 10 weeks, 20 rats",19
same,No. of tumor-bearing rats (%),Hras128 rats [6]; [12],95%
same,No. of tumors/rat,Hras128 rats [6]; [12],13.2 ± 6.8^b
same,Incidence of carcinomas (figure in parentheses),"Hras128 rats [6]; Hras128 female, bladder, percent sign not given",35.3
same,Sensitivity of the Hras128 rat to BBN carcinogenesis in the bladder,"Hras128 rats [6]; rat, in vivo",slightly elevated sensitivity
same,"Endogenous (rat) exon 1 mutations, number of tumors",[4]; [10],0
same,"Endogenous (rat) exon 2 mutations, number of tumors",[4]; [10],0
same,"Endogenous (rat) exon 1 mutations, %",[4]; [13],5.9%
same,"Endogenous (rat) exon 2 mutations, number of tumors",[4]; [13],0
same,"Endogenous (rat) exon 1 mutations, number of tumors","[4]; BBN-induced bladder tumors, Wild, 17 tumors examined, GGA to GAA",1/17 and 1
